Reference: ChEMBL document CHEMBL1124446, “Synthesis of some novel potent and selective catechol O-methyltransferase inhibitors” (J Med Chem, 1989)

molecular target: T1, Catechol O-methyltransferase (Rattus norvegicus, UniProt P22734); experiment: In vitro inhibitory activity against catechol O-methyltransferase of rat brain using 3,4-dihydroxybenzoic acid as the substrate.; settings: not given
T1 sequence (P22734 whole entry): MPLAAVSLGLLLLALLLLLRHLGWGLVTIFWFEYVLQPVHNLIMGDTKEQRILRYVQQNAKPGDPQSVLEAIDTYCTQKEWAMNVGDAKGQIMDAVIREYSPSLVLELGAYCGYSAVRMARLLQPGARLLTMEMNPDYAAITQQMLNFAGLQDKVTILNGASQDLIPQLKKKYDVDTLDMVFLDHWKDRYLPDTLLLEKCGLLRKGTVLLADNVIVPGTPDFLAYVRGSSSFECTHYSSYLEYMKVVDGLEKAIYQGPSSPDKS

| SMILES | IC50 [nM] |
| --- | --- |
| N#CC(C#N)=Cc1cc(O)c(O)c([N+](=O)[O-])c1 | 20 |
| O=Cc1cc(O)c(O)c(C(F)(F)F)c1 | 2300 |
| CC(=O)/C(C)=C/c1cc(O)c(O)c([N+](=O)[O-])c1 | 12 |
| N#Cc1cc(C(=O)NC23CC4CC(CC(C4)C2)C3)cc(O)c1O | 90 |
| CN(C)C(=O)/C(C#N)=C/c1cc(O)c(O)c([N+](=O)[O-])c1 | 18 |
| O=C(NC12CC3CC(CC(C3)C1)C2)c1cc(O)c(O)c(Cl)c1 | 400 |
| COc1cc(C(=O)/C=C/c2cc(O)c(O)c([N+](=O)[O-])c2)cc(OC)c1OC | 5 |
| O=C(O)CCCCc1cc(O)c(O)c(Cl)c1 | 8000 |
| CC(=O)c1cc(O)c(O)c([N+](=O)[O-])c1 | 16 |
| O=C(NC12CC3CC(CC(C3)C1)C2)c1ccc(O)c(O)c1Cl | 12000 |
| N#Cc1cc(C=O)cc(O)c1O | 160 |
| O=C(NC12CC3CC(CC(C3)C1)C2)c1cc(O)c(O)cc1Cl | 2700 |
| N#Cc1cc(O)c(O)c([N+](=O)[O-])c1 | 30 |
| O=C(/C=C/c1cc(O)c(O)c([N+](=O)[O-])c1)c1ccccc1 | 6 |
| O=C(O)c1cc(O)c(O)c([N+](=O)[O-])c1 | 620 |
| O=C1/C(=C/c2cc(O)c(O)c([N+](=O)[O-])c2)CC/C1=C\c1cc(O)c(O)c([N+](=O)[O-])c1 | 3 |
| O=C(NC12CC3CC(CC(C3)C1)C2)c1cc(O)c(O)c([N+](=O)[O-])c1 | 19 |
| O=C(NC12CC3CC(CC(C3)C1)C2)c1cc(O)c(O)cc1[N+](=O)[O-] | 1100 |
| CCOC(=O)/C(C#N)=C/c1cc(O)c(O)c([N+](=O)[O-])c1 | 50 |
| CC(C)C(=O)c1ccc(O)c(O)c1 | 6000 |
| O=C(O)CCCCc1cc(O)c(O)c([N+](=O)[O-])c1 | 90 |
| CS(=O)(=O)c1cc(C=O)cc(O)c1O | 20000 |
| CC(=O)C(=Cc1cc(O)c(O)c(C(F)(F)F)c1)C(C)=O | 1500 |
| O=[N+]([O-])c1cc(Cl)cc(O)c1O | 25 |
| O=[N+]([O-])c1cc(CO)cc(O)c1O | 180 |
| O=Cc1cc(O)c(O)c(C=O)c1 | 160 |
| O=Cc1cc(O)c(O)c([N+](=O)[O-])c1 [3,4-DIHYDROXY-5-NITROBENZALDEHYDE] | 24 |
| CC(=O)C(=Cc1cc(O)c(O)c([N+](=O)[O-])c1)C(C)=O [NITECAPONE] | 18 |

molecular target: T2, Aromatic-L-amino-acid decarboxylase (Sus scrofa, UniProt P80041); experiment: Inhibitory activity against the dopamine decarboxylase; settings: not given
T2 sequence (P80041 whole entry): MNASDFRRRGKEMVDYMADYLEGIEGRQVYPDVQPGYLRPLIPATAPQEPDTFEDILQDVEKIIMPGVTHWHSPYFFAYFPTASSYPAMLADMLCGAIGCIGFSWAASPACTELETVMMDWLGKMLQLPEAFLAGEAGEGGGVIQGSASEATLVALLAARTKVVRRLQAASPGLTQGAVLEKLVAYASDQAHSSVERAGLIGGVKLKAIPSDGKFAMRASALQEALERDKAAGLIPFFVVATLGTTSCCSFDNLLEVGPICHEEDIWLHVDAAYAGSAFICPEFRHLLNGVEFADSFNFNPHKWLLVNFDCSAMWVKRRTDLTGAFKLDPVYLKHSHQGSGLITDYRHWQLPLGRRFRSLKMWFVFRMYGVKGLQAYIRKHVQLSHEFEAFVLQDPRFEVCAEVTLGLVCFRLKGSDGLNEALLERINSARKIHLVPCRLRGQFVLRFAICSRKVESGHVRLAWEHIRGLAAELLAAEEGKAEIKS

| SMILES | IC50 [nM] |
| --- | --- |
| COc1cc(C(=O)/C=C/c2cc(O)c(O)c([N+](=O)[O-])c2)cc(OC)c1OC | > 50000 |
| O=C(/C=C/c1cc(O)c(O)c([N+](=O)[O-])c1)c1ccccc1 | > 50000 |
| CC(C)C(=O)c1ccc(O)c(O)c1 | > 50000 |

molecular target: T3, Amine oxidase [flavin-containing] B (Rattus norvegicus, UniProt P19643); experiment: Inhibitory activity against the Monoamine oxidase B; settings: not given
T3 sequence (P19643 whole entry): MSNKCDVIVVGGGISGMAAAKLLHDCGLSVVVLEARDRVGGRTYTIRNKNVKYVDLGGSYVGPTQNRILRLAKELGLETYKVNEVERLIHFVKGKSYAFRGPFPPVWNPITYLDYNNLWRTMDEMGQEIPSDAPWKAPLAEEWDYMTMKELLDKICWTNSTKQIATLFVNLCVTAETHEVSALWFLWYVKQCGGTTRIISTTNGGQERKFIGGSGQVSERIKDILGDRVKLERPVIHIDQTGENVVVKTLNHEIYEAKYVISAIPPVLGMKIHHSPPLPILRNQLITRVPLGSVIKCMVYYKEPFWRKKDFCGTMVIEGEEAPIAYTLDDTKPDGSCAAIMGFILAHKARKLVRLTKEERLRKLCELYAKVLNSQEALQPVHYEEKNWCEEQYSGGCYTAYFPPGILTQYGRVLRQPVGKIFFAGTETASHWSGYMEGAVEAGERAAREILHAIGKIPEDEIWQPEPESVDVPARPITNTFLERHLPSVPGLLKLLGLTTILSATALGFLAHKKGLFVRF

| SMILES | IC50 [nM] |
| --- | --- |
| COc1cc(C(=O)/C=C/c2cc(O)c(O)c([N+](=O)[O-])c2)cc(OC)c1OC | > 50000 |
| O=C(/C=C/c1cc(O)c(O)c([N+](=O)[O-])c1)c1ccccc1 | > 50000 |
| CC(C)C(=O)c1ccc(O)c(O)c1 | > 50000 |

molecular target: T4, Amine oxidase [flavin-containing] A (Mus musculus, UniProt Q64133); experiment: Inhibitory activity against the Monoamine oxidase A; settings: not given
T4 sequence (Q64133 whole entry): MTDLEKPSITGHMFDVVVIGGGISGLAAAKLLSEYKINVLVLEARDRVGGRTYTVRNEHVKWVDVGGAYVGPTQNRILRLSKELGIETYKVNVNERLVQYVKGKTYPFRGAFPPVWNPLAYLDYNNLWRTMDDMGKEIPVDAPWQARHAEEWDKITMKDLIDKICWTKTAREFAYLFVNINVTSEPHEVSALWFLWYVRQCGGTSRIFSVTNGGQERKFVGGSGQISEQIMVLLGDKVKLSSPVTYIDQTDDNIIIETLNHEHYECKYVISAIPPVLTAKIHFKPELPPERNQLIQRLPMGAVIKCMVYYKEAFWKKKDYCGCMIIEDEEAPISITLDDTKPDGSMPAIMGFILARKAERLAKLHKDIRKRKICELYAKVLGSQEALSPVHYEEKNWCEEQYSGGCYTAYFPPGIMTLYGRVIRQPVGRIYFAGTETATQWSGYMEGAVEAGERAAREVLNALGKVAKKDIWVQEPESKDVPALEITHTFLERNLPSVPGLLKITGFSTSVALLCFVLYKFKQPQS

| SMILES | IC50 [nM] |
| --- | --- |
| COc1cc(C(=O)/C=C/c2cc(O)c(O)c([N+](=O)[O-])c2)cc(OC)c1OC | > 50000 |
| O=C(/C=C/c1cc(O)c(O)c([N+](=O)[O-])c1)c1ccccc1 | > 50000 |
| CC(C)C(=O)c1ccc(O)c(O)c1 | > 50000 |

molecular target: not listed separately; experiment: Inhibitory activity against Phenol sulfotransferase; settings: not given

| SMILES | IC50 [nM] |
| --- | --- |
| CC(=O)c1cc(O)c(O)c([N+](=O)[O-])c1 | 125000 |
| O=[N+]([O-])c1cc(O)c(O)c([N+](=O)[O-])c1 [3,5-DINITROCATECHOL (OR-486)] | 150000 |
| CC(=O)C(=Cc1cc(O)c(O)c([N+](=O)[O-])c1)C(C)=O [NITECAPONE] | 210000 |

test system: Rattus norvegicus; experiment: Inhibition of formation of 3OMD in rat serum by 80 %, when compound was administered in combination with L-Dopa and carbidopa; format: functional; settings: not given

| SMILES | Oral dose [mg/kg] |
| --- | --- |
| CC(=O)C(=Cc1cc(O)c(O)c([N+](=O)[O-])c1)C(C)=O [NITECAPONE] | 30 |

organism: Rattus norvegicus; experiment: Compound was tested for acute oral toxicity in Wistar rats; format: organism-based; settings: in vivo

| SMILES | Toxicity [mg/kg] |
| --- | --- |
| CC(=O)C(=Cc1cc(O)c(O)c([N+](=O)[O-])c1)C(C)=O [NITECAPONE] | 2500 |

molecular target: T5, Tyrosine 3-monooxygenase (Bos taurus, UniProt P17289); experiment: Inhibitory activity against the tyrosine hydroxylase; settings: not given
T5 sequence (P17289 whole entry): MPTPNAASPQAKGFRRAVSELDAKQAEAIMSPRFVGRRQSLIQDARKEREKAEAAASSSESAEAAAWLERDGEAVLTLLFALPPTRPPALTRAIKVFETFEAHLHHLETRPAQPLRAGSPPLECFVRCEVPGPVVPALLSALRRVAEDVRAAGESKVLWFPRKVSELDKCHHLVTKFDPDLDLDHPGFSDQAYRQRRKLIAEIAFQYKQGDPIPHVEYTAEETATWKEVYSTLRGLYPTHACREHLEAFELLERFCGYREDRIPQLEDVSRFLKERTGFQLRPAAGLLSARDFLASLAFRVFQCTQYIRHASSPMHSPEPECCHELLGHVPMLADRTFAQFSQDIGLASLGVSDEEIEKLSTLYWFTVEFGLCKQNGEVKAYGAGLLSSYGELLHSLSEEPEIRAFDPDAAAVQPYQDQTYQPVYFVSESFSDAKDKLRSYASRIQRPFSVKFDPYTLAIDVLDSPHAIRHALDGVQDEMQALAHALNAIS

| SMILES | IC50 [nM] |
| --- | --- |
| COc1cc(C(=O)/C=C/c2cc(O)c(O)c([N+](=O)[O-])c2)cc(OC)c1OC | 21000 |
| O=C(/C=C/c1cc(O)c(O)c([N+](=O)[O-])c1)c1ccccc1 | 50000 |
| CC(C)C(=O)c1ccc(O)c(O)c1 | 24000 |

molecular target: T6, Dopamine beta-hydroxylase (Homo sapiens, UniProt P09172); experiment: Inhibitory activity against the dopamine beta hydroxylase; settings: not given
T6 sequence (P09172 whole entry): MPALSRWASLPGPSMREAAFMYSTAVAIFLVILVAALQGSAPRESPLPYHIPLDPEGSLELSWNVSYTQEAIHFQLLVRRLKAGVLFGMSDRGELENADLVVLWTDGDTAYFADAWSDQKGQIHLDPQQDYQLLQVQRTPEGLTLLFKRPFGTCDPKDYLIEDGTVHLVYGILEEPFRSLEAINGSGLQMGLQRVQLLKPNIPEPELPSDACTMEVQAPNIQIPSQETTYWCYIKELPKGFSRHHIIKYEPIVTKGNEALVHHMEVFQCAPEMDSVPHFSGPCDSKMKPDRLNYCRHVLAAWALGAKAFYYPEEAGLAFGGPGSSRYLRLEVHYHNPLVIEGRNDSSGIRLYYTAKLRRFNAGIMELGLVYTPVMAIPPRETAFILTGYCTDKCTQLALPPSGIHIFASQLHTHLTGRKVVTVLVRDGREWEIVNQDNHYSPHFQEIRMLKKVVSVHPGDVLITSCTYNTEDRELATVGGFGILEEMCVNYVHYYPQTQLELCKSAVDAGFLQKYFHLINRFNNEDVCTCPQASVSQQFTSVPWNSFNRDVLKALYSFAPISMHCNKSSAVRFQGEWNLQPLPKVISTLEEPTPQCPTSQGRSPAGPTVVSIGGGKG

| SMILES | IC50 [nM] |
| --- | --- |
| COc1cc(C(=O)/C=C/c2cc(O)c(O)c([N+](=O)[O-])c2)cc(OC)c1OC | > 50000 |
| O=C(/C=C/c1cc(O)c(O)c([N+](=O)[O-])c1)c1ccccc1 | > 50000 |
| CC(C)C(=O)c1ccc(O)c(O)c1 | > 50000 |
